Measurements: paper PMC3353181, “A gallotannin-rich fraction from Caesalpinia spinosa (Molina) Kuntze displays cytotoxic activity and raises sensitivity to doxorubicin in a leukemia cell line” (BMC Complementary and Alternative Medicine, 2012)

Key:
gingival fibroblasts = experiment: MTT cytotoxicity assay, gingival fibroblasts; assay type: cell-based; settings: Homo sapiens, Fibroblast, normal gingival fibroblasts, concentration ± SE
From the text: (§1) The cell lines used as cancer cells were K562, a human erythroleukemia and MCF7, a human breast adenocarcinoma, from the American Type Culture Collection (ATCC); and the cell lines used as normal cells were human peripheral blood mononuclear cells (PBMC) and human fibroblasts obtained from normal healthy donors after informed consent was given. This project was approved by the ethics committee (founded in 2002) of the Science Faculty at a meeting on August 21, 2007. The culture conditions under which the cell lines were maintained have already been reported.
(§2) The cytotoxic effects of the fractions and conventional chemotherapeutic drugs (doxorubicin, etoposide, vincristine and taxol) were evaluated using normal and tumor cells by means of trypan blue and the methylthiazol tetrazolium (MTT) assay, as previously reported. The P2Et fraction was dissolve in ethanol and the corresponding vehicle was used as a negative control.
(§3) Figure 2 Induction of morphological changes and cytotoxicity in K562 cells by C. spinosa fractions without affecting normal human cells. […] Morphological changes were evaluated by direct observation using a light microscope at a magnification of 40X (B: 1. Ethanol; 2. S2Et; 3. P2Et; and 4. Etoposide). […]
(§4) Additionally, the cytotoxic activity of C. spinosa fractions was evaluated using gingival fibroblasts from the oral mucosa or normal human mononuclear cells. […]

PBMC = experiment: MTT cytotoxicity assay, PBMC; assay type: cell-based; settings: Homo sapiens, normal PBMC, concentration ± SE
From the text: as §1, §2, §3, §4

[1] = test system: melanoma cells (RPMI-7951); set-up: method as in PMID 1431932; settings: cited from earlier work
HL-60 cell line = test system: HL-60 cell line; set-up: method as in PMID 10554885; settings: cited from earlier work
K562 = experiment: P2Et adjuvant activity (MTT), K562; assay type: cell-based, human; settings: sub-optimal tested concentrations
Description: P2Et fraction adjuvant activity was assessed using K562 and MCF7 cells in combination with the well-known cancer treatment drugs doxorubicin, vincristine, taxol and camptothecin. Cell viability was evaluated by means of the MTT assay. […] Results are expressed as cell viability percentage relative to the control (100 × Treatment OD/Negative control OD).
K562 (A) or MCF7 (B) cells were treated with the P2Et fraction or ethanol (negative control) for 6 h, washed and treated with doxorubicin (Dx), vincristine (Vt), camptothecin (Ct) or taxol (Tx) at the concentrations shown over a 48 h period. Cell cytotoxicity was estimated using the MTT assay. Data represent three independent experiments. *** (p < 0.001).

SMILES: COc1cc([C@@H]2c3cc4c(cc3[C@@H](O[C@@H]3O[C@@H]5CO[C@@H](C)O[C@H]5[C@H](O)[C@H]3O)[C@H]3COC(=O)[C@H]23)OCO4)cc(OC)c1O [Etoposide]
- IC50 (gingival fibroblasts): > 200 µg/mL
- IC50 (PBMC): > 200 µg/mL

SMILES: O=C(O[C@H]1[C@H](O)C[C@](O)(C(=O)O)C[C@H]1OC(=O)c1cc(O)c(O)c(O)c1)c1cc(O)c(O)c(O)c1 [4,5-di-O-galloylquinic acid]
- Cytotoxicity against melanoma cells [1]: moderate cytotoxicity

SMILES: O=C(OC[C@H]1O[C@@H](OC(=O)c2cc(O)c(O)c(O)c2)[C@H](OC(=O)c2cc(O)c(O)c(O)c2)[C@@H](OC(=O)c2cc(O)c(O)c(O)c2)[C@@H]1OC(=O)c1cc(O)c(O)c(O)c1)c1cc(O)c(O)c(O)c1 [PGG, 1,2,3,4,6-penta-O-galloyl-β-D-glucose]
- Induction of apoptosis (HL-60 cell line): able to induce caspase-mediated apoptosis

SMILES: COc1cccc2c1C(=O)c1c(O)c3c(c(O)c1C2=O)C[C@@](O)(C(=O)CO)C[C@@H]3O[C@H]1C[C@H](N)[C@H](O)[C@H](C)O1 [Doxorubicin]
- Effect on cell viability, used separately (K562): slight effect
